According to ChEMBL document CHEMBL4706540, “Targeting estrogen receptor α for degradation with PROTACs: A promising approach to overcome endocrine resistance” (Eur J Med Chem, 2020):

Experiments:
[1] = system: MCF7; assay: Induction of IAP-mediated estrogen receptor alpha degradation in human MCF7 cells at <1 uM by western blot analysis relative to control; format: cell-based; conditions: dose microM <1
[2] = target: T1, Estrogen receptor (Homo sapiens, UniProt P03372); assay: Induction of XIAP-mediated estrogen receptor alpha degradation in human MCF7 cells incubated for 4 hrs by western blot analysis; format: cell-based
T1 sequence (P03372 whole entry): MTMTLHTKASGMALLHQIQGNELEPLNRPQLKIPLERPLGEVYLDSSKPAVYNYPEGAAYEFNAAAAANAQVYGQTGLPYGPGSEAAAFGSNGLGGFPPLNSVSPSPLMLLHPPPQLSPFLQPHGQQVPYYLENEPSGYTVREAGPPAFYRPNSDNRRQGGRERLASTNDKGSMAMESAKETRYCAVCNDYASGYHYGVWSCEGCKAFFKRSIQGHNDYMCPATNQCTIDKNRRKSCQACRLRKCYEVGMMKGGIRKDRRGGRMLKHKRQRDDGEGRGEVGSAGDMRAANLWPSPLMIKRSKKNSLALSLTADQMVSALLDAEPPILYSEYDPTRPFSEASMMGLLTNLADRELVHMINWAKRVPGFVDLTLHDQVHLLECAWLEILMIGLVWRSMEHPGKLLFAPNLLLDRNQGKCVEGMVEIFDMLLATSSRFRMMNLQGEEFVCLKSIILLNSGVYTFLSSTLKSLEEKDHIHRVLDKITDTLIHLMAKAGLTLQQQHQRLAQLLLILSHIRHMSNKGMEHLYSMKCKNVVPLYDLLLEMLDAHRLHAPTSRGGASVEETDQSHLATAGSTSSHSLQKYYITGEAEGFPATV

[3] = system: MCF7; assay: Antiproliferative activity against human MCF7 cells incubated for 6 days with replacement of medium every 2 to 3 days by MTT assay relative to control; format: functional; conditions: time 6 day
[4] = system: MCF7; assay: Antiproliferative activity against human MCF7 cells incubated for 6 days with replacement of medium every 2 to 3 days by MTT assay; format: functional, cell-based
[5] = system: T47D; assay: Antiproliferative activity against human T47D cells incubated for 6 days with replacement of medium every 2 to 3 days by MTT assay relative to control; format: functional; conditions: time 6 day
[6] = system: T47D; assay: Antiproliferative activity against human T47D cells incubated for 6 days with replacement of medium every 2 to 3 days by MTT assay; format: functional, cell-based
[7] = target: T2, von Hippel-Lindau disease tumor suppressor/Estrogen receptor (Homo sapiens, UniProt P03372+P40337); assay: Induction of VHL-mediated ERalpha degradation in human MCF7 cells assessed as maximum degradation by western blot analysis relative to control; format: cell-based
Target sequence in this assay (P40337 whole entry, looked up, one chain of several): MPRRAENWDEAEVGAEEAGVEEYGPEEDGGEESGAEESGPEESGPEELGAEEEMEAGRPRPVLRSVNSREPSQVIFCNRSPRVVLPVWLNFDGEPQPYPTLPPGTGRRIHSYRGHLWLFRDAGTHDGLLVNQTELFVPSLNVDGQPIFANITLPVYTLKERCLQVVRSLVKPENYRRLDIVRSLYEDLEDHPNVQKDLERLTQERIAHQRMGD

[8] = target: T2, von Hippel-Lindau disease tumor suppressor/Estrogen receptor; assay: Induction of VHL-mediated ERalpha degradation in human MCF7 cells by western blot analysis; format: cell-based
Target sequence in this assay (P40337 whole entry, one chain of several): as the sequence (P40337 whole entry, looked up, one chain of several) above

[9] = target: T2, von Hippel-Lindau disease tumor suppressor/Estrogen receptor; assay: Induction of VHL-mediated ERalpha degradation in human T47D cells assessed as maximum degradation by western blot analysis relative to control; format: cell-based
Target sequence in this assay (P40337 whole entry, looked up, one chain of several): as above

[10] = target: T2, von Hippel-Lindau disease tumor suppressor/Estrogen receptor; assay: Induction of VHL-mediated ERalpha degradation in human T47D cells by western blot analysis; format: cell-based
Target sequence in this assay (P40337 whole entry, one chain of several): as the sequence (P40337 whole entry, looked up, one chain of several) above

[11] = system: T47D; assay: Antiproliferative activity against human T47D cells incubated for 72 hrs by crystal violet staining based assay; format: functional, cell-based
[12] = system: MCF7; assay: Antiproliferative activity against human MCF7 cells incubated for 72 hrs by crystal violet staining based assay; format: functional, cell-based; conditions: MCF7, 72 h
[13] = system: MCF7; assay: Growth inhibition of human MCF7 cells harboring ER D538G mutant incubated for 5 days by PrestoBlue cell viability assay; format: functional, cell-based; conditions: MCF7, 120 h
[14] = system: MCF7; assay: Growth inhibition of human MCF7 cells harboring wild type estrogen receptor incubated for 5 days by PrestoBlue cell viability assay; format: functional, cell-based; conditions: MCF7, 120 h
[15] = system: MCF7; assay: Growth inhibition of human MCF7 cells harboring ER Y537S mutant incubated for 5 days by PrestoBlue cell viability assay; format: functional, cell-based; conditions: MCF7, 120 h

| Structure (SMILES) | DC50 [2] | Imax [3] | IC50 [4] | Imax [5] | IC50 [6] | Imax [7] | DC50 [8] | further results |
| --- | --- | --- | --- | --- | --- | --- | --- | --- |
| CN[C@@H](C)C(=O)N[C@H](C(=O)N1Cc2cc(OCCOCCOCCOCCOc3ccc(Oc4c(-c5ccc(O)cc5)sc5cc(O)ccc45)cc3)ccc2C[C@H]1C(=O)N[C@@H]1CCCc2ccccc21)C(C)(C)C | – | – | – | – | – | – | – | Activity [1]: > 50% |
| CCC(=C(c1ccc(O)cc1)c1ccc(OCCN(C)C(=O)COCCOCCOCCOc2cccc(O[C@H]3C[C@@H](C(=O)N[C@@H]4CCCc5ccccc54)N(C(=O)[C@@H](NC(=O)[C@H](C)NC)C4CCCCC4)C3)c2)cc1)c1ccccc1 | < 3 nM | – | – | – | – | – | – | – |
| Cc1ncsc1-c1ccc([C@H](C)NC(=O)[C@@H]2C[C@@H](O)CN2C(=O)[C@@H](NC(=O)CCCCOc2ccc(/C=N/NC(=O)c3ccc(C(=O)c4c(-c5ccc(O)cc5)sc5cc(O)ccc45)cc3)cc2)C(C)(C)C)cc1 | – | 60% | 69.1 nM | 73% | 65.2 nM | 95% | 7.7 nM | Imax [9]: > 95%; DC50 [10]: 10.3 nM |
| CCC(=C(c1ccc(O)cc1)c1ccc(OCCN(C)C(=O)COCCOCCOCCOc2cccc(C(=O)c3csc([C@@H]4CCCN4C(=O)[C@@H](NC(=O)[C@H](C)NC)C4CCCCC4)n3)c2)cc1)c1ccccc1 | < 3 nM | – | – | – | – | – | – | IC50 [11]: 9.6 nM; IC50 [12]: 15.6 nM |
| CCN(CCCCCCCC(=O)N[C@H](C(=O)N1C[C@H](O)C[C@H]1C(=O)N[C@@H](C)c1ccc(-c2scnc2C)cc1)C(C)(C)C)CCOc1ccc(C(=O)c2c(-c3ccc(O)cc3)sc3cc(O)ccc23)cc1 | – | – | – | – | – | – | – | IC50 [13]: 6.1 nM; IC50 [14]: 0.8 nM; IC50 [15]: 10.5 nM |
| Cc1ncsc1-c1ccc([C@H](C)NC(=O)[C@@H]2C[C@@H](O)CN2C(=O)[C@@H](NC(=O)CCCCOc2ccc(CNNC(=O)c3ccc(C(=O)c4c(-c5ccc(O)cc5)sc5cc(O)ccc45)cc3)cc2)C(C)(C)C)cc1 | – | 69% | 13.2 nM | 78% | 17 nM | 98% | 1.13 nM | – |
